Source: patent US12729381B2, “Methods and compositions for inactivating interleukin-2-inducible t-cell kinase (ITK)” (priority 2020, dated 2026)
Non-standard residues stand in square brackets, D forms with d. No end group written: not given here. *: point of attachment. FITC = O=C1OC2(c3ccc(O)cc3Oc3cc(O)ccc32)c2ccc(NC(=S)*)cc21; pY = N[C@@H](Cc1ccc(OP(=O)(O)O)cc1)C(=O)O

Test system: human T cells
Assay: Intracellular IFN-γ and TNF-α production by primary human T cells from PBMCs (flow cytometry)
Type: cell-based
Conditions: anti-CD3/anti-CD28 with Brefeldin A, 6 hours; vs vehicle alone
Method: ITK deficiency is known to enhance the development of regulatory T cells (Tregs) (Elmore et al., 2020, Owen et al., 2019) so the peptide inhibitor was tested to determine whether inhibition of the ITK: SLP76Y145 interactions using SLP76pTYR would induce Tregs. First, the frequency of Tregs was examined by expression of CD4^+ and FoxP3^+ (FIG. 18A). Next, total mouse T cells were stimulated with anti-CD3 (Sugie et al., 2004) in the presence of either SLP76pTYR, nonspecific peptide, or vehicle alone for 5 to 24 hours, and cells were harvested and examined for the presence of Tregs (CD4^+CD25^+FoxP3^+). […] Next, the effects of SLP76pTYR peptide on human PBMC samples from healthy human patients was investigated. T cells from these patients were stimulated with anti-CD3 (OKT3) (Karimi et al., 2005) for 5 minutes in the presence of SLP76pTYR or vehicle alone. […]
More specifically, FIGS. 18A-18F depict Novel peptide SLP76pTYR specifically targets SLP76: ITK signaling and enhances Treg cell development. […] (FIG. 18C) Quantification of three experiments as in (A) (FIG. 18D) Cell lysates were obtained from mouse T cells stimulated with anti-CD3 and anti-CD28 in the presence of SLP76pTYR, or vehicle alone. […] Intracellular IFN-γ and TNF-α expression by CD8^+ and CD4+ T cells was determined by flow cytometry. […]

FITC Dye ^132NEEEEAPVEDDADpYEPPPSNDEEA^155-TAT ({FITC}-NEEEEAPVEDDAD[pY]EPPPSNDEEAGRKKRRQRRRPQ) [SLP76pTYR]
IFN-γ production: significantly reduced IFN-γ and TNF-α production | TNF-α production: significantly reduced IFN-γ and TNF-α production
